Data taken from PubChem BioAssay AID1949 (Southern Research Institute, 2009).
≈ marks a conversion by molar mass, not a printed value. Results filed as inconclusive are left out. Calls of active or inactive are those of the source. How the calls were made is not given here.

Tested on: M. tuberculosis H37Rv growth inhibition
Test: Mycobacterium tuberculosis H37Rv growth inhibition, cell based, confirmatory dose response (AID 1949);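 further: bacteria grown 7 days with compound before Alamar blue readout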

Row | Compound | IC50
1 | O=C(Oc1ccccc1)c1ccc(S(=O)(=O)N2CCCCC2)cc1 | 0.73 µg/mL (≈ 2.11 µM)
2 | Cc1cccc(COc2ccc(/C=C/[N+](=O)[O-])cc2)c1 | 21.4 µg/mL (≈ 79.5 µM)
3 | O=C(Nc1ccccc1Br)c1ccc([N+](=O)[O-])o1 | 1.61 µg/mL (≈ 5.18 µM)
4 | CC1(C)CC(=O)C2=C(C1)NC1=C(C(=O)c3ccccc31)C2c1ccc(C(F)(F)F)cc1 (stereo not given) | 30.3 µg/mL (≈ 71.7 µM)
5 | CCOC(=O)COc1ccc(OCc2ccccc2)cc1 | 1.21 µg/mL (≈ 4.23 µM)
6 | CCC(=O)Oc1cccc2ccc(/C=C/c3ccccc3F)nc12 | < 0.1 µg/mL
7 | COc1ccc(OC)c(NC(=O)Nc2ccc(Cl)c(C(F)(F)F)c2)c1 | 1.72 µg/mL (≈ 4.59 µM)
8 | CCCCn1c(NCc2ccc(N(CC)CC)cc2)nc2ccccc21 | 11.2 µg/mL (≈ 32 µM)
9 | CC(=O)c1cccc(Nc2nc(-c3ccccn3)cs2)c1 | 0.98 µg/mL (≈ 3.32 µM)
10 | Cc1cccc(C)c1OCC(=O)N/N=C/c1ccc(O)c([N+](=O)[O-])c1 | 0.36 µg/mL (≈ 1.05 µM)
11 | Cc1ccc(OC(F)F)c(NC(=O)Nc2ccc([N+](=O)[O-])cc2)c1 | 22.4 µg/mL (≈ 66.5 µM)
12 | COc1ccc2c(c1)c(=O)oc1cc(OC(C)C(=O)c3ccccc3)ccc12 (stereo not given) | 2.84 µg/mL (≈ 7.59 µM)
13 | Cc1oc2ccc(OC(=O)c3ccc(F)cc3)cc2c1C(=O)OC(C)C | 2.4 µg/mL (≈ 6.73 µM)
14 | Cc1ccc2nsnc2c1S(=O)(=O)Nc1cccc2cccnc12 | 0.31 µg/mL (≈ 0.87 µM)
15 | COc1ccc(NC(=S)NC(=O)CCc2ccccc2)cc1 | 1.92 µg/mL (≈ 6.11 µM)
16 | CCC(=O)Oc1ccc(-c2nc3ccccc3c(=O)o2)cc1 | > 50 µg/mL (inactive)
17 | Cc1cc2ncn(CCOc3ccc(Cl)cc3)c2cc1C | 1.12 µg/mL (≈ 3.72 µM)
18 | Cc1ccc(NC(=S)Nc2ccc(Cl)c(Cl)c2)c(OC(F)F)c1 | 2.92 µg/mL (≈ 7.74 µM)
19 | O=C(CSc1nnc(-c2ccccc2Cl)o1)Nc1ccccn1 | > 50 µg/mL (inactive)
20 | O=C(CC(O)(C(F)(F)F)C(F)(F)F)Nc1ccc(Oc2ccccc2)cc1 | 7.49 µg/mL (≈ 19 µM)
21 | O=C(Oc1ccccc1)c1cccc2cccnc12 | 0.99 µg/mL (≈ 3.97 µM)
22 | c1ccc(CNc2nc(N3CCN(Cc4ccccc4)CC3)nc3ccccc23)cc1 | 1.5 µg/mL (≈ 3.66 µM)

Row | Compound | IC50
23 | O=C(CSc1nnc(SCc2cccc3ccccc23)s1)Nc1ccccc1F | 1.45 µg/mL (≈ 3.28 µM)
24 | COc1cc2ccccc2cc1C(=O)NCCC12CC3CC(CC(C3)C1)C2 | 3.27 µg/mL (≈ 9 µM)
25 | C=CCc1cc(C)ccc1OCCCn1ccnc1 | 3.52 µg/mL (≈ 13.7 µM)
26 | O=C(CC1(O)C(=O)N(CCc2ccccc2)c2ccc(Cl)cc21)c1ccccn1 (stereo not given) | 5.07 µg/mL (≈ 12.5 µM)
27 | Cc1ccc(NC(=O)C(C)NS(=O)(=O)c2ccc(Cl)cc2)cc1Cl (stereo not given) | 2.85 µg/mL (≈ 7.36 µM)
28 | Cc1ccc(SCCNC(=S)Nc2ccc(Nc3ccccc3)cc2)cc1 | 4.03 µg/mL (≈ 10.2 µM)
29 | CCCCNCCOc1ccc(Cl)cc1C(C)(C)C | 12.8 µg/mL (≈ 45 µM)
30 | Cc1cc(NS(=O)(=O)c2ccc(NC(=O)c3ccc(C(C)(C)C)cc3)cc2)no1 | 1.76 µg/mL (≈ 4.26 µM)
31 | Cc1ccc2c(C)nc(Nc3nc(CSc4nc5ccccc5s4)cc(=O)[nH]3)nc2c1 | 0.38 µg/mL (≈ 0.851 µM)
32 | S=C(NCCc1ccc(Cl)cc1)Nc1ccc(Nc2ccccc2)cc1 | 2.09 µg/mL (≈ 5.47 µM)
33 | CC(C)(C)Nc1nc(N2CCCC2)nc(N2CCCC2)n1 | > 50 µg/mL (inactive)
34 | O=C(COc1ccc(C(=O)NCc2ccccc2)cc1)OC1CCCCC1 | 0.73 µg/mL (≈ 1.99 µM)
35 | COc1cc(Br)cc2cc(C(=O)Nc3cc(C(F)(F)F)ccc3Cl)c(=O)oc12 | > 50 µg/mL (inactive)
36 | CN(c1ccccc1)c1ccc([N+](=O)[O-])c2nonc12 | < 0.1 µg/mL
37 | COC(=O)c1ccc(COC(=O)c2ccccc2Cl)cc1 | 1.69 µg/mL (≈ 5.55 µM)
38 | Cc1ccc(C(=O)NCCC23CC4CC(CC(C4)C2)C3)cc1 | 0.18 µg/mL (≈ 0.605 µM)
39 | O=C(Nc1ccc(-c2nc3ccccc3c(=O)o2)cc1)c1ccccc1I | 0.37 µg/mL (≈ 0.79 µM)
40 | O=C(NCc1ccccc1)c1cc2cc(Cl)cc(Cl)c2oc1=O | > 50 µg/mL (inactive)
41 | O=C(Nc1nnc(C2CCCCC2)s1)c1sc2ccccc2c1Cl | 0.37 µg/mL (≈ 0.979 µM)
42 | O=C(c1ccc2ccccc2c1)N(C1CCCCC1)C1CCCCC1 | 43 µg/mL (≈ 128 µM)
43 | O=C(Nc1cccc(I)c1)C(Cl)Cl | 5.84 µg/mL (≈ 17.7 µM)
44 | CC(C)(C)c1ccc(Cn2cnc([N+](=O)[O-])n2)cc1 | < 0.1 µg/mL

Row | Compound | IC50
45 | COc1ccc(NC(=O)CC23CC4CC(CC(C4)C2)C3)cc1Cl | 3.05 µg/mL (≈ 9.14 µM)
46 | Cc1ccc(C(=O)Nc2ccc(N3CCN(C)CC3)cc2)cc1Cl | 46.2 µg/mL (≈ 134 µM)
47 | Cc1ccc(Cn2c(=N)n(CC(O)c3ccc(Cl)c(Cl)c3)c3ccccc32)cc1 (stereo not given) | 2.89 µg/mL (≈ 6.78 µM)
48 | Cc1ccc(CNC(=S)Nc2ccc(N(C)C)cc2)cc1 | 5.34 µg/mL (≈ 17.8 µM)
49 | O=c1c2cccc3c2c(nn1CCN1CCCCC1)-c1ccccc1-3 | 2.84 µg/mL (≈ 8.57 µM)
50 | O=C1c2cccc3cc([N+](=O)[O-])cc(c23)C(=O)N1CCO | > 50 µg/mL (inactive)
51 | O=C(Oc1ccc(Cl)c2cccnc12)c1cccc(Br)c1 | 10.6 µg/mL (≈ 29.3 µM)
52 | O=[N+]([O-])c1ccc(Sc2n[nH]c(-c3ccccc3)n2)nc1 | 10 µg/mL (≈ 33.5 µM)
53 | CCCc1nc2ccccc2n1CC(O)COc1ccc(Br)cc1 (stereo not given) | 4.08 µg/mL (≈ 10.5 µM)
54 | Cc1ccc(-c2nn(-c3ccccc3)cc2CNCc2ccccc2)o1 | 9.25 µg/mL (≈ 26.9 µM)
55 | O=c1c2oc3cccc4c3n(c=2c(=O)c2ccccc12)CCC4 | 5.4 µg/mL (≈ 17.8 µM)
56 | O=C(COc1ccc(Br)cc1)c1ccc(F)cc1 | 10.7 µg/mL (≈ 34.5 µM)
57 | COc1ccc(C23CC4CC(CC(C4)C2)C3)cc1C(=O)NCCN(C)C | 10.8 µg/mL (≈ 30.3 µM)
58 | CCOc1ccc(NC(=O)CSc2nc3ccc([N+](=O)[O-])cc3s2)cc1 | 1.99 µg/mL (≈ 5.11 µM)
59 | CC(C)(C)NC(=O)c1cc2cc(Cl)cc(Cl)c2oc1=O | 2.54 µg/mL (≈ 8.08 µM)
60 | Cc1cc(OCCn2ccnc2)ccc1Cl | 2.77 µg/mL (≈ 11.7 µM)
61 | COc1cccc(NC(=O)c2c(NC(=O)c3cccnc3)sc3c2CCC3)c1 | 0.1 µg/mL (≈ 0.254 µM)
62 | COc1ccc(C(=O)CCN2CCCC(C)C2)cc1 (stereo not given) | 35 µg/mL (≈ 134 µM)
63 | CCOC(=O)c1c(NC(C)=O)sc2c(OCC(O)CN(CC)CC)c(Br)ccc12 (stereo not given) | 4.61 µg/mL (≈ 9.46 µM)
64 | COc1ccc2nc(C)c3cc(C)oc3c2c1 | 1.82 µg/mL (≈ 8.01 µM)
65 | Clc1ccc(SCCCn2ccnc2)cc1 | 2.36 µg/mL (≈ 9.34 µM)
66 | Cc1ccc(C(C)C)c(OCCCCn2ccnc2)c1 | 2.22 µg/mL (≈ 8.15 µM)

Row | Compound | IC50
67 | OCc1cn(-c2ccccc2)nc1-c1ccc2c(c1)OCCO2 | 6.9 µg/mL (≈ 22.4 µM)
68 | CCCCNCCOc1ccc2ccccc2c1Br | 7.65 µg/mL (≈ 23.7 µM)
69 | CC(C)(C)c1cc(Cl)c(O)c(NC(=S)NC(=O)c2cccc3ccccc23)c1 | < 0.1 µg/mL
70 | Cc1cccc(OCCn2c(NC(=O)c3ccco3)nc3ccccc32)c1 | 2.87 µg/mL (≈ 7.94 µM)
71 | Cc1cc(C)c2nc(NC3=NC(c4ccccc4)CC(=O)N3)nc(C)c2c1 (stereo not given) | > 50 µg/mL (inactive)
72 | Cc1cc(Cl)ccc1N1CCN(CCNC(=O)Nc2ccc(F)cc2)CC1 | > 50 µg/mL (inactive)
73 | CC1CN(c2ccc([N+](=O)[O-])cc2)CCN1C(=O)c1cccc(Br)c1 (stereo not given) | 2.83 µg/mL (≈ 7 µM)
74 | Cc1ccc(C2=CC(c3cccc([N+](=O)[O-])c3)n3nnnc3N2)cc1C (stereo not given) | 12.2 µg/mL (≈ 35 µM)
75 | CCn1nnc(NC(=O)COc2ccc(C3CCCCC3)cc2)n1 | 2.04 µg/mL (≈ 6.19 µM)
76 | CC(NCc1cccc(OCc2ccccc2)c1)C(O)c1ccccc1 (stereo not given) | 5.53 µg/mL (≈ 15.9 µM)
77 | Cc1ccc(S(=O)(=O)c2nc(S(=O)(=O)Cc3ccc([N+](=O)[O-])cc3)sc2Cl)cc1 | 1.04 µg/mL (≈ 2.2 µM)
78 | c1ccc(-n2nnnc2Oc2cccc3cccnc23)cc1 | 5.68 µg/mL (≈ 19.6 µM)
79 | O=C(Nc1cccc([N+](=O)[O-])c1)Nc1ccc(Cl)c(C(F)(F)F)c1 | 0.19 µg/mL (≈ 0.528 µM)
80 | COCCNCCCCOc1ccc(Cl)cc1C(C)(C)C | 4.62 µg/mL (≈ 14.7 µM)
81 | CN1C(=O)N(C)c2ccc(C=O)c3cccc1c23 | > 50 µg/mL (inactive)
82 | CC1C(c2ccc(Cl)cc2)NC(c2ccc(Cl)cc2)C(C)C1(O)c1ccc(F)cc1 (stereo not given) | > 50 µg/mL (inactive)
83 | Fc1ccc(-c2nn(-c3ccccc3)cc2CNCc2ccccc2)cc1 | 5.86 µg/mL (≈ 16.4 µM)
84 | CC(=O)Oc1c(/C=C(\C#N)C(N)=O)[nH]c2ccccc12 | 5.98 µg/mL (≈ 22.2 µM)
85 | O=C1C(Cl)=C(N2CCOCC2)C(=O)N1c1cccc(Cl)c1Cl | 20.9 µg/mL (≈ 57.7 µM)
